According to the RepoRT retention time repository:

Assay: Waters ACQUITY UPLC BEH C18, 100 × 2.1 mm, 1.7 µm, 40 °C, 0.3 to 0.4 mL/min, estimated dead time 0.63 min; A: water + 0.1% formic acid; B: methanol + 0.1% formic acid; gradient (min/%B) 0/0.5 0.1/0.5 10/80 10.1/99.5 12/99.5
Conditions: stereoisomer not certain

SMILES | LC retention time [min]
CC(C)=CCc1c(O)cc2c(c1O)C(=O)CC(c1ccccc1)O2 (stereo not given) | 7.58
O=C(C=Cc1ccc(O)cc1)NCCCCN(CCCNC(=O)C=Cc1ccc(O)cc1)C(=O)C=Cc1ccc(O)cc1 | 5.62
COc1ccc(C2CC(=O)c3c(O)cc(O)cc3O2)cc1O (stereo not given) | 6.04
CC(=O)c1cccc2oc(=O)[nH]c12 | 3.93
OC1CCN2Cc3ccccc3N=C12 (stereo not given) | 2.55
COc1ccc2ccc(=O)oc2c1CC=C(C)C | 8.75
CCCCCC=CC=CC(O)CCCCCCCC(=O)O (stereo not given) | 9.79
COc1cc2c(cc1O)CC1c3c(cc(O)c(OC)c3-2)CCN1C (stereo not given) | 3.35
CN1CCCCC1c1ccc(-c2cccnc2)nc1 (stereo not given) | 2.37
CCCCCCCCC1OC1CCCCCCCC(=O)O (stereo not given) | 10.3
NC(N)=NCCCCNC(=O)C=Cc1ccc(O)cc1 | 3.07
C=CC1CN2CCc3c([nH]c4ccccc34)C2CC1C(=COC)C(=O)OC (stereo not given) | 5.68
O=C1C(O)Oc2ccccc2N1O (stereo not given) | 1.83
CC=C1CN(C)C2CC3(C(=O)N(OC)c4ccccc43)C3CC1C2CO3 (stereo not given) | 4.63
CCC(C)C(NC(=O)C(N)C(C)C)C(=O)O (stereo not given) | 2.88
CCCCCC=CCC=CCCCCCCCC(=O)OCC(O)COP(=O)([O-])OCC[N+](C)(C)C (stereo not given) | 9.31
C=CC1CN2CCC1CC2C(O)c1ccnc2ccccc12 (stereo not given) | 3.09

SMILES | LC retention time [min]
CCC=CCC1C(=O)C=CC1CCCCCCCC(=O)O (stereo not given) | 9.37
c1ccc2c(c1)CN1CCCC1=N2 | 2.8
COc1c2c(cc3c(-c4ccc5c(c4)OCO5)c4c(cc13)C(=O)OC4)OCO2 | 8.93
O=C(O)C=C(CC(=O)O)C(=O)O | 1.61
CC(C)=CCc1cc(-c2coc3c(C(C=C(C)C)c4cc(-c5coc6cc(O)cc(O)c6c5=O)ccc4O)c(O)cc(O)c3c2=O)ccc1O (stereo not given) | 8.22
COC(=O)C=Cc1ccccc1 | 2.87
COc1cc(C=CC(=O)NCCc2ccc(O)cc2)ccc1O | 5.13
NC(Cc1ccccc1)C(=O)O (stereo not given) | 2.3
O=C(C=Cc1ccc(O)c(O)c1)OC(Cc1ccc(O)c(O)c1)C(=O)O (stereo not given) | 4.6
COc1ccc(C(=O)OC2CC3CCC(C2)N3C)cc1OC (stereo not given) | 3.95
C=CCSCC(NC(=O)CCC(N)C(=O)O)C(=O)O (stereo not given) | 2.98
O=c1cc(-c2ccccc2)oc2ccccc12 | 7.75
CC(C)CC(N)C(=O)NC(C(=O)O)C(C)C (stereo not given) | 2.66
COc1cc2c3cc1Oc1c(OC)c(OC)cc4c1C(Cc1ccc(cc1)Oc1cc(ccc1O)CC3N(C)CC2)N(C)CC4 (stereo not given) | 3.76
CS(=O)CCCCCCCCC(N)C(=O)O (stereo not given) | 2.74
CCC(C)C(N)C(=O)O (stereo not given) | 1.94

Next, values leading:

LC retention time [min] | SMILES
3.39 | CC1OC(OCC2OC(Oc3c(-c4ccc(O)c(O)c4)oc4cc(OC5OC(CO)C(O)C(O)C5O)cc(O)c4c3=O)C(O)C(O)C2O)C(O)C(O)C1O (stereo not given)
1.88 | OCC1OC(Oc2ccc(O)cc2)C(O)C(O)C1O (stereo not given)
4.51 | O=c1c(O)c(-c2ccc(OC3OC(CO)C(O)C(O)C3O)c(O)c2)oc2cc(O)cc(O)c12 (stereo not given)
2.07 | O=c1[nH]c(=O)c2ncn(C3OC(CO)C(O)C3O)c2[nH]1 (stereo not given)
3.12 | OCC1OC(Oc2cc3c(O)cc(O)cc3[o+]c2-c2ccc(O)cc2)C(O)C(O)C1O (stereo not given)
7.66 | CC(C)=CCCC(C)(OC1OC(CO)C(O)C(O)C1O)C1CCC2(C)C1C(O)CC1C3(C)CCC(OC4OC(CO)C(O)C(O)C4O)C(C)(C)C3CCC12C (stereo not given)
5.88 | CC(C)=CCCC(C)(OC1OC(COC2OC(CO)C(O)C(O)C2O)C(O)C(O)C1O)C1CCC2(C)C1C(O)CC1C3(C)CCC(OC4OC(CO)C(O)C(O)C4OC4OC(CO)C(O)C(O)C4O)C(C)(C)C3CCC12C (stereo not given)
4.48 | CC(CCC1(O)OC2CC3C4CC=C5CC(O)CC(OC6OCC(O)C(O)C6OC6OC(C)C(O)C(O)C6O)C5(C)C4CCC3(C)C2C1C)COC1OC(CO)C(O)C(O)C1O (stereo not given)
5.13 | COc1ccc(C2OCC3C(c4ccc(OC5OC(CO)C(O)C(O)C5O)c(OC)c4)OCC23)cc1OC (stereo not given)
4.64 | CC(CCC1(O)OC2CC3C4CCC5CC(OC6OC(CO)C(O)C(O)C6OC6OC(CO)C(O)C(O)C6O)C(O)CC5(C)C4CCC3(C)C2C1C)COC1OC(CO)C(O)C(O)C1O (stereo not given)
4.85 | O=C(CCc1ccccc1)c1c(O)cc(O)cc1OC1OC(CO)C(O)C(O)C1O (stereo not given)
5.28 | CC1OC(Oc2cc(O)c3c(=O)c(O)c(-c4ccc(O)cc4)oc3c2)C(O)C(O)C1O (stereo not given)
7.11 | CC1OC(OC2CCC3(C)C(CCC4(C)C3C=CC3=C5CC(C)(C)CCC5(CO)C(O)CC34C)C2(C)CO)C(O)C(OC2OC(CO)C(O)C(O)C2O)C1O (stereo not given)
3.19 | COc1cc(-c2[o+]c3cc(O)cc(O)c3cc2OC2OC(CO)C(O)C(O)C2O)cc(OC)c1O (stereo not given)
3.46 | Oc1cc(O)c2c(c1)OC(c1ccc(O)c(O)c1)C(O)C2c1c(O)cc(O)c2c1OC(c1ccc(O)c(O)c1)C(O)C2c1c(O)cc(O)c2c1OC(c1ccc(O)c(O)c1)C(O)C2 (stereo not given)
4.6 | O=C(C=Cc1ccc(O)c(O)c1)OC1CC(O)(C(=O)O)CC(OC(=O)C=Cc2ccc(O)c(O)c2)C1O (stereo not given)
4 | O=C1C(=Cc2ccc(O)c(O)c2)Oc2c1ccc(OC1OC(CO)C(O)C(O)C1O)c2O (stereo not given)
5.38 | COc1ccc(-c2coc3cc(OC4OC(COC(=O)CC(=O)O)C(O)C(O)C4O)c(OC)cc3c2=O)cc1 (stereo not given)
4.21 | O=C(C=Cc1ccc(O)cc1)OCC1OC(OC2C(c3c(O)cc4oc(-c5ccc(O)cc5)cc(=O)c4c3O)OC(CO)C(O)C2O)C(O)C(O)C1O (stereo not given)
3.72 | COc1cc(-c2oc3cc(O)cc(O)c3c(=O)c2OC2OC(CO)C(O)C(O)C2OC2OC(C)C(O)C(O)C2O)ccc1O (stereo not given)
4.15 | CC(CCC1(O)OC2CC3C4CC=C5CC(O)CC(OC6OCC(O)C(OC7OCC(O)C(O)C7O)C6OC6OC(C)C(O)C(O)C6O)C5(C)C4CCC3(C)C2C1C)COC1OC(CO)C(O)C(O)C1O (stereo not given)
4.6 | COc1ccc(-c2cc(=O)c3c(O)cc(OC4OC(C(=O)O)C(O)C(O)C4O)cc3o2)cc1O (stereo not given)
4.77 | O=C(C=Cc1ccc(O)cc1)OC1C(OC2C(Oc3ccc(-c4cc(=O)c5c(O)cc(O)cc5o4)cc3)OC(C(=O)O)C(O)C2O)OC(C(=O)O)C(O)C1O (stereo not given)
3.76 | COc1cc(-c2[o+]c3cc(O)cc(OC4OC(CO)C(O)C(O)C4O)c3cc2OC2OC(COC3OC(C)C(OC(=O)C=Cc4ccc(O)cc4)C(O)C3O)C(O)C(O)C2O)cc(O)c1O (stereo not given)
3.2 | C=CC1C(OC2OC(CO)C(O)C(O)C2O)OC=C2C(=O)OCCC21O (stereo not given)
4.67 | COc1ccc(-c2coc3cc(OC4OC(COC(=O)CC5CCNCC5)C(O)C(O)C4O)c(OC)cc3c2=O)cc1 (stereo not given)
3.86 | CC1OC(OCC2OC(Oc3c(-c4ccc(O)c(O)c4)oc4cc(O)cc(O)c4c3=O)C(O)C(O)C2O)C(O)C(O)C1O (stereo not given)
